Test results as given in patent US10172876B2, “Use of ginsenoside M1 for treating IgA nephropathy” (priority 2014, dated 2019).

What was measured:
NLRP3 = test: Western blot of NLRP3 in IgA-IC stimulated DCs; type: cell-based, mouse; conditions: β-actin loading control (FIG. 14)
Procedure: (§1) Dendritic cells (DCs) maturation was determined by the upregulation of costimulatory molecule expression. Cells were treated with IgA-IC, LCHK168 (1, 2 μM) and stained with mAbs specific for mouse CD40, CD80, and CD86 and then analyzed by flow cytometry.
Each protein sample was run on a 8% SDS-PAGE gel and the proteins were electro blotted on to a polyvinylidene difluoride membrane, which was then incubated for 1 h at room temperature in blocking buffer (Tris-buffered saline containing 5% skim milk) and then overnight at 4° C. with rabbit antibodies against NLRP3 or β-actin. After being washed, the membrane was incubated for 1 h at room temperature with HRP-conjugated goat anti-rabbit IgG antibody in the same buffer; then bound antibody was detected using UVP Biospectrum.

TLR2 = test: Real-time RT-PCR of renal TLR2 mRNA in IgAN mice; type: in vivo; conditions: 60 mg/kg daily oral gavage
Procedure: (§2) B-cell-deficient mice were obtained from the Academia Sinica (Professor John T. Kung, Institute of Molecular Biology, Taipei, Taiwan) and maintained at the animal center of the National Defense Medical Center (Taipei, Taiwan). IgAN was induced by daily injection of purified IgA anti-phosphorylcholine antibodies and pneumococcal C-polysaccharide antigen (PnC). All animal experiments were performed with the approval of the Institutional Animal Care and Use Committee of the National Defense Medical Center and complied with the NIH Guide for the Care and Use of Laboratory Animals.
(§3) Ginsenoside M1, 20-O-β-D-glucopyranosyl-20(S)-protopariaxadiol (named LCHK168 below), was prepared by methods known in the art, such as those described in Taiwan Patent Application No. 094116005 (1280982) and U.S. Pat. No. 7,932,057. The mice were treated daily with 60 mg/kg LCHK168 or with the vehicle, by oral gavage throughout the experiment, the first dose being given 2 day before disease induction.
Renal cortex RNA was extracted using TRIzol reagent according to the manufacturer's instructions, and RT-PCR was used to measure TLR2 gene expression. […] Real-time quantification was performed using a Applied Biosystems according to the manufacturer's instructions. […]

[1] = tested on: reactive oxygen species (ROS); test: Measurement of reactive oxygen species (ROS) in renal tissue of IgAN mice; type: in vivo; conditions: vs disease control (FIG. 10)
Procedure: as §2
(§4) Ginsenoside M1, 20-O-β-D-glucopyranosyl-20(S)-protopariaxadiol (named LCHK168 below), was prepared by methods known in the art, such as those described in Taiwan Patent Application No. 094116005 (1280982) and U.S. Pat. No. 7,932,057. […]
To measure ROS levels in renal tissue, the samples were incubated at room temperature with Krebs-Hepes buffer containing 1.25 mM lucigenin (Sigma, St. Louis, Mo., USA) as substrate, and luminescence counts were measured in duplicate at 15-s intervals on a multilabel microplate reader (Hidex). ROS activity was expressed as relative luminescence units (RLU) per 15 minutes per milligram of organ dry weight (i.e., RLU/15 min/mg) or as RLU/15 min/ml.

memory CD4+ T cells = test: Flow cytometry of splenocytes for memory CD4+ T cells in IgAN mice; type: in vivo; conditions: 60 mg/kg daily oral gavage, vs disease control (FIG. 11)
Procedure: as §2, §4
Splenocytes from the mice were treated with Tris-buffered ammonium chloride to eliminate erythrocytes, washed and resuspended in RPMI1640 medium supplemented with 10% fetal calf serum, Hepes buffer, L-glutamine, and penicillin/streptomycin. The cells were triple-stained for activated T cell subtypes using FITC-conjugatedanti-mouse CD44, phycoerythrin-conjugated anti-mouse CD62 antibodies, and allophycocyanin-conjugated anti-mouse CD4 and analyzed using a FACSCalibur.

Dendritic cells (DCs) = test: IgA-IC stimulated dendritic cell maturation by flow cytometry; type: cell-based, mouse; conditions: LCHK168 1, 2 μM, flow cytometry (FIG. 13)
Procedure: as §1

[2] = tested on: mice model of IgA nephropathy (IgAN); test: Urine protein and renal function in IgAN mice; type: in vivo
Procedure: as §2, §3
Body weight was measured weekly. Urine samples were collected in metabolic cages weekly and urine protein was determined. Serum samples were collected on days 14 and 28 to measure serum levels of blood urea nitrogen (BUN) and creatinine (Cr). For renal histopathology, the tissues were fixed in 10% buffered formalin and embedded in paraffin, and then sections (3 μm) were prepared and stained with hematoxylin and eosin (H&E). The percentage of glomeruli showing proliferation, neutrophil infiltration, sclerosis, or periglomerular inflammation was determined by counting 50 randomly sampled glomeruli by light microscopy at a magnification of 400×.

[3] = tested on: mice model of IgA nephropathy (IgAN); test: Renal histopathology (H&E) in IgAN mice; type: in vivo; conditions: day 28, 60 mg/kg daily oral gavage, vs disease control (FIG. 3)
Procedure: as §2, §3
Body weight was measured weekly. Urine samples were collected in metabolic cages weekly and urine protein was determined. […] The percentage of glomeruli showing proliferation, neutrophil infiltration, sclerosis, or periglomerular inflammation was determined by counting 50 randomly sampled glomeruli by light microscopy at a magnification of 400×.

[4] = tested on: mice model of IgA nephropathy (IgAN); test: IHC of renal tissue for infiltrating leukocytes and Collagen IV in IgAN mice; type: in vivo; conditions: day 28, 60 mg/kg daily oral gavage
Procedure: as §2, §3
For IHC, formalin-fixed and paraffin-embedded tissue sections or frozen sections were incubated overnight at 4. C with anti-bodies against CD3, F4/80, CD4, CD8, CD11c, Collagen IV, diluted in DAKO antibody dilution buffer (DAKO), and then for 1 h at room temperature with horseradish peroxidase (HRP)-conjugated second antibodies (DAKO) in the same buffer; in the case of the HRP-conjugated antibodies, DAB (DAKO) was also added. Hematoxylin was used to counterstain nuclei. Positive cells was counted at a magnification of 400× in 20 consecutive glomeruli or in 20 randomly selected fields of the tubule interstitial compartment in the cortical area by Pax-It quantitative image analysis software.

[5] = day 14, 60 mg/kg daily oral gavage, between disease control, IgAN+LCHK168 and normal control

CC(C)=CCC[C@](C)(O[C@@H]1OC(CO)[C@@H](O)[C@@H](O)C1O)[C@H]1CC[C@]2(C)C1[C@H](O)CC1[C@@]3(C)CC[C@H](O)C(C)(C)C3CC[C@]12C (stereo partly drawn) [LCHK168, 20-O-β-D-glucopyranosyl-20(S)-protopanaxadiol]
NLRP3 protein expression in DCs (NLRP3): significantly decreased | TLR2 mRNA levels in the kidney (relative to GAPDH) (TLR2; 14 days, difference vs IgAN control mice (FIG. 12)): not statistically significant | TLR2 mRNA levels in the kidney (relative to GAPDH) (TLR2; 28 days, vs IgAN control mice (FIG. 12)): significantly lower | increase in renal tissues ROS levels ([1]; day 14, 60 mg/kg daily oral gavage): greatly inhibited | increase in ROS levels in renal tissues ([1]; day 28, 60 mg/kg daily oral gavage): substantially inhibited | memory CD4+ T cells in splenocytes (memory CD4+ T cells): significant reduction | expression level of CD40 in DCs (Dendritic cells (DCs)): significantly lowered | expression level of CD80 in DCs (Dendritic cells (DCs)): significantly lowered | expression level of CD86 in DCs (Dendritic cells (DCs)): significantly lowered | urine protein levels (ratio of urine protein to creatinine) ([2]; IgAN mice, 60 mg/kg daily oral gavage, day 14 to day 28, vs vehicle-treated disease control (FIG. 1)): markedly inhibited | proteinuria compared to normal untreated controls ([2]; IgAN mice, 60 mg/kg daily oral gavage, vs normal untreated controls (FIG. 1)): mild proteinuria | serum levels of BUN [2, 5]: no significant difference | serum levels of Cr [2, 5]: no significant difference | serum levels of BUN ([2]; day 28, 60 mg/kg daily oral gavage, vs disease control (FIG. 2A)): much better renal function | serum levels of Cr ([2]; day 28, 60 mg/kg daily oral gavage, vs disease control (FIG. 2B)): much better renal function | renal lesion (proliferation, crescents, sclerosis, neutrophil infiltration, periglomerular leukocyte infiltration, tubular atrophy) [3]: significantly inhibited | renal infiltration of CD3+ T cells ([4]; vs disease control (FIG. 4)): significantly decreased | renal infiltration of F4/80+ monocytes/macrophages ([4]; vs disease control (FIG. 5)): significantly decreased | renal infiltration of CD4+ T cells ([4]; vs disease control (FIG. 6)): significantly decreased | renal infiltration of CD8+ T cells ([4]; vs disease control (FIG. 7)): significantly decreased | renal infiltration of CD11c+ dendritic cells ([4]; vs disease control (FIG. 8)): significantly decreased | renal fibrosis (Collagen IV staining) ([4]; vs disease control (FIG. 9)): significantly decreased
